Results reported in ChEMBL document CHEMBL5291721, “A preclinical secondary pharmacology resource illuminates target-adverse drug reaction associations of marketed drugs” (Nat Commun, 2023).

Key:
Adenosine receptor A1 = biological target: T1, Adenosine receptor A1 (Homo sapiens, UniProt P30542)
T1 sequence (P30542 whole entry): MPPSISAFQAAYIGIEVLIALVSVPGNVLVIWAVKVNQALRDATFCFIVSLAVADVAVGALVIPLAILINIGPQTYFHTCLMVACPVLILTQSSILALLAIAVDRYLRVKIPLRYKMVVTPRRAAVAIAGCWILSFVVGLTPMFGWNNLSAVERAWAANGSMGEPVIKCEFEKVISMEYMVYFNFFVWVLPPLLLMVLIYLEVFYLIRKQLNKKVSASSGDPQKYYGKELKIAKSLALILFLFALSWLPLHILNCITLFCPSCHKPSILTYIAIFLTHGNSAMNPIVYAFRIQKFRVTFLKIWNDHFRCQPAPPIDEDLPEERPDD

Adenosine receptor A3 = biological target: T2, Adenosine receptor A3 (Homo sapiens, UniProt P0DMS8)
T2 sequence (P0DMS8 whole entry): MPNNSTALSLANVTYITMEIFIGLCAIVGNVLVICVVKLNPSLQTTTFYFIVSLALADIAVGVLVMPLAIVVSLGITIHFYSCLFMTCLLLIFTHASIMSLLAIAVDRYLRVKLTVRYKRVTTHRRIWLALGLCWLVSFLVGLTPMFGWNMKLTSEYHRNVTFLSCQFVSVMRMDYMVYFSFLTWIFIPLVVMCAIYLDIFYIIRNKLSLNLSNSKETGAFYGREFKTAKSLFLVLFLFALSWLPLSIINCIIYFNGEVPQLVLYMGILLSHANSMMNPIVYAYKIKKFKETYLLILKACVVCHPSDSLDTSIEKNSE

Cannabinoid receptor 1 = Cannabinoid receptor 1 (Homo sapiens, UniProt P21554); assay type: functional, cell-based
[1] = biological target: Glutamate receptor ionotropic, NMDA 1 (Rattus norvegicus, UniProt P35439)
Histamine H2 receptor = Histamine H2 receptor (Homo sapiens, UniProt P25021); assay type: functional, cell-based
Melanocortin receptor 3 = Melanocortin receptor 3 (Homo sapiens, UniProt P41968)
Motilin receptor = Motilin receptor (Homo sapiens, UniProt O43193)
[2] = biological target: T3, Neuropeptide Y receptor type 1 (Homo sapiens, UniProt P25929)
T3 sequence (P25929 whole entry): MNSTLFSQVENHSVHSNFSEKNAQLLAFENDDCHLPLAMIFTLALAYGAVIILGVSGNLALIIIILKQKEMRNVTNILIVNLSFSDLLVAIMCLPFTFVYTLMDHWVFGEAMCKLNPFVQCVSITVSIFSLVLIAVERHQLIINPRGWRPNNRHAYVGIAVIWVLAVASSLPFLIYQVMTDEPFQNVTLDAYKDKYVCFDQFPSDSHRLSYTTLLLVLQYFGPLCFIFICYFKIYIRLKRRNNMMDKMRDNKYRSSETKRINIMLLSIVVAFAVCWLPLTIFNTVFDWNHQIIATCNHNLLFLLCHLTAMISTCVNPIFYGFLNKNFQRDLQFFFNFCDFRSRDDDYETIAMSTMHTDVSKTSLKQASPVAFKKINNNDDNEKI

[3] = biological target: Sodium-dependent dopamine transporter (Homo sapiens, UniProt Q01959)
[4] = biological target: Sodium-dependent noradrenaline transporter (Homo sapiens, UniProt P23975)
[5] = biological target: T4, Alpha-1A adrenergic receptor (Homo sapiens, UniProt P35348); assay type: functional, cell-based
T4 sequence (P35348 whole entry): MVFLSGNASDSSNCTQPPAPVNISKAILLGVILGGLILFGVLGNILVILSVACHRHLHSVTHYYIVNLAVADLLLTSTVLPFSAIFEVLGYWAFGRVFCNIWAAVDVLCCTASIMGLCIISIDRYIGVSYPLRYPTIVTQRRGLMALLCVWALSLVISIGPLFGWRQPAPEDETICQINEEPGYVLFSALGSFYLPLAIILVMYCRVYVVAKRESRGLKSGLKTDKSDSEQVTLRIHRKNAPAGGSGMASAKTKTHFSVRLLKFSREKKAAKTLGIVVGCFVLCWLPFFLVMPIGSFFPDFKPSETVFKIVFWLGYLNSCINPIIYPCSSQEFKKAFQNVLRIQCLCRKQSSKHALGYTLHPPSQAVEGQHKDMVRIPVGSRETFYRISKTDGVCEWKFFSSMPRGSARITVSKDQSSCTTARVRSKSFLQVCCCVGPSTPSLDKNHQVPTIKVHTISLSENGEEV

Thromboxane A2 receptor = biological target: T5, Thromboxane A2 receptor (Homo sapiens, UniProt P21731)
T5 sequence (P21731 whole entry): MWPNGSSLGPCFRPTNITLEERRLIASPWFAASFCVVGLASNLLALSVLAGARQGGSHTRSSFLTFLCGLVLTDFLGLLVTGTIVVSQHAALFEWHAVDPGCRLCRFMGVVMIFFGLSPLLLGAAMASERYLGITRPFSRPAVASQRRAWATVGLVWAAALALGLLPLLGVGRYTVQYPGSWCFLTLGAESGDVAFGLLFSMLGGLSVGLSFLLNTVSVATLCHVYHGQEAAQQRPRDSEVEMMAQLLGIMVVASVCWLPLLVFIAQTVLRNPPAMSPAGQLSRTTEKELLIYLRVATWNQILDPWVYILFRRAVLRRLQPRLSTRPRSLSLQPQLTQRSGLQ
Note: assay procedure not described here.

Sequence of Histamine H2 receptor (P25021 whole entry): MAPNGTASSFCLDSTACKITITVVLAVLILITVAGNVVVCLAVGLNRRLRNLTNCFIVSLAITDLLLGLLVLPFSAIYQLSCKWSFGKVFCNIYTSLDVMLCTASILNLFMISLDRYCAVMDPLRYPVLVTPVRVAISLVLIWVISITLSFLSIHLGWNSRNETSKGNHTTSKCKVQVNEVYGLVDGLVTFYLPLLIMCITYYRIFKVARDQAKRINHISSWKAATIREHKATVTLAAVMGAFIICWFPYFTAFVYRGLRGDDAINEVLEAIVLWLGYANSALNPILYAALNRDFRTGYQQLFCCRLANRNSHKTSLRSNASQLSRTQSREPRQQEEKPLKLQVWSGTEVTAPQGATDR
Sequence of Melanocortin receptor 3 (P41968 whole entry): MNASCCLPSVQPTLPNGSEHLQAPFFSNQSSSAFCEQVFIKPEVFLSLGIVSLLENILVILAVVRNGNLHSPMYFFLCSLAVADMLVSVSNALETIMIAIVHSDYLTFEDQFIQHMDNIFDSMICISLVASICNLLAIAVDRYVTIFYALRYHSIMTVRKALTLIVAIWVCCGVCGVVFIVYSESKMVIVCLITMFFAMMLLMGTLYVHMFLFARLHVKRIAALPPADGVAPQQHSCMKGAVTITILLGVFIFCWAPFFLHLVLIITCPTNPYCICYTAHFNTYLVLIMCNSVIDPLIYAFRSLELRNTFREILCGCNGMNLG
Sequence of Cannabinoid receptor 1 (P21554 whole entry): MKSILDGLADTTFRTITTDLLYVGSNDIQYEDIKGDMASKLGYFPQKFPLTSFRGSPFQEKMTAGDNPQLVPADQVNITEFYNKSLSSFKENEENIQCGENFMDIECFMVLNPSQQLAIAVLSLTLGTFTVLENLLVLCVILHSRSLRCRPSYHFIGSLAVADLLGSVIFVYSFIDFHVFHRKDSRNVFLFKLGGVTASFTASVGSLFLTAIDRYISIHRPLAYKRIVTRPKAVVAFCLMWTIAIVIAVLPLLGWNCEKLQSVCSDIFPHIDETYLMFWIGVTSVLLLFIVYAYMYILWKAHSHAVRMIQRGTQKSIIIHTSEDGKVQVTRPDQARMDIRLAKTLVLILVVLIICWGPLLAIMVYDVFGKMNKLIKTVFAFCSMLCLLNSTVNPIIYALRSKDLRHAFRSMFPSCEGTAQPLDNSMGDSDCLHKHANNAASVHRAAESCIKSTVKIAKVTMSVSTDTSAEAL
Sequence of Sodium-dependent dopamine transporter (Q01959 whole entry): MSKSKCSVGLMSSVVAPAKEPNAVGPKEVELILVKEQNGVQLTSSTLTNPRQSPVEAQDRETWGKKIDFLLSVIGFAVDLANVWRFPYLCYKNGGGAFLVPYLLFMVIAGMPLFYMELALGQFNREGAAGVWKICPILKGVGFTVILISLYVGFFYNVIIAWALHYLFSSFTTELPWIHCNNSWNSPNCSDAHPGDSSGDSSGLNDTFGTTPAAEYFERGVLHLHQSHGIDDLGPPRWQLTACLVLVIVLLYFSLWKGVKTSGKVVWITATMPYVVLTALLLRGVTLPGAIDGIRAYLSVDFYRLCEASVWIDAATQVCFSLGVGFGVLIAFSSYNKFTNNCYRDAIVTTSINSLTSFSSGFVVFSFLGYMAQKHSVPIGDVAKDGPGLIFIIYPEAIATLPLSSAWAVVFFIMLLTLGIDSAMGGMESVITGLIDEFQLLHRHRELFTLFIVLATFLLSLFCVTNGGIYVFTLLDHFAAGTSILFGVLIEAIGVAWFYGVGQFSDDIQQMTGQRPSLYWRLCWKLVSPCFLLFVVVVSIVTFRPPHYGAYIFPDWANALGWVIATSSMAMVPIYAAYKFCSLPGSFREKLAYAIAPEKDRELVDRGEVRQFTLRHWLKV
Sequence of Motilin receptor (O43193 whole entry): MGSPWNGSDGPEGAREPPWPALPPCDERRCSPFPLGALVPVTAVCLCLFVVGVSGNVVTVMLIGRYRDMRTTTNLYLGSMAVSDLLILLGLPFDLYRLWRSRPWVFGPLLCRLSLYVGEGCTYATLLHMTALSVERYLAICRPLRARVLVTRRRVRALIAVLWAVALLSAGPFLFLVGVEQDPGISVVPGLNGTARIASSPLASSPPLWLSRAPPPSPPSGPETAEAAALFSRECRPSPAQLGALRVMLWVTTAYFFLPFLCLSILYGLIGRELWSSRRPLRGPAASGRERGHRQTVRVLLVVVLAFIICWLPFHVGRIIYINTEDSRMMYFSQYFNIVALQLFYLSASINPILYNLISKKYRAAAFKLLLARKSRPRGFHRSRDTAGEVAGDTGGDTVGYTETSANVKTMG
Sequence of Sodium-dependent noradrenaline transporter (P23975 whole entry): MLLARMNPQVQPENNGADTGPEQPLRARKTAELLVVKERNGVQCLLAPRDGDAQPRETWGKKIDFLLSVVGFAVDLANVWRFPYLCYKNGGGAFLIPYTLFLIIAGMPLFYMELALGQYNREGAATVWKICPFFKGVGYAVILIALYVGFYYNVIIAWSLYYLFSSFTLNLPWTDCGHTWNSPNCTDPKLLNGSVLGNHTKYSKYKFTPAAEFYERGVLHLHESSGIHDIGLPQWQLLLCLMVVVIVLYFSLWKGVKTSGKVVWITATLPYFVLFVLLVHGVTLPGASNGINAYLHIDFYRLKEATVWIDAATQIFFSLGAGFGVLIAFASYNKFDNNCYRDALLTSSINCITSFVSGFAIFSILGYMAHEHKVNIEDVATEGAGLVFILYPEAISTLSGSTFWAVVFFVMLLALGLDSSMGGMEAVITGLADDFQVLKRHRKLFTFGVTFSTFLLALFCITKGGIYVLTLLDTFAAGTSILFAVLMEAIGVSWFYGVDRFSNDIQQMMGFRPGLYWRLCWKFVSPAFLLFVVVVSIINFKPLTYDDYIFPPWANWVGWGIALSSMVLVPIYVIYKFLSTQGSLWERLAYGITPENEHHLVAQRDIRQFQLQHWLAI

| Structure (SMILES) | AC50 (Adenosine receptor A1) | AC50 (Adenosine receptor A3) | AC50 (Cannabinoid receptor 1) | AC50 [1] | AC50 (Histamine H2 receptor) | AC50 (Melanocortin receptor 3) | AC50 (Motilin receptor) | AC50 [2] | AC50 [3] | AC50 [4] | AC50 [5] | AC50 (Thromboxane A2 receptor) |
| --- | --- | --- | --- | --- | --- | --- | --- | --- | --- | --- | --- | --- |
| Nc1nc2ccc(OC(F)(F)F)cc2s1 [RILUZOLE] | > 30 µM | > 30 µM | > 30 µM | > 30 µM | > 30 µM | > 30 µM | > 30 µM | > 30 µM | > 30 µM | 19 µM | > 30 µM | – |
| NC(=O)C[S+]([O-])C(c1ccccc1)c1ccccc1 (centres undefined) [MODAFINIL] | > 30 µM | 13.4 µM | > 30 µM | > 10 µM | > 10 µM | 21.2 µM | > 10 µM | > 30 µM | – | > 10 µM | > 30 µM | > 30 µM |
| C[C@]12CCC(=O)C=C1CC[C@@H]1[C@@H]2CC[C@@]2(C)[C@H]1CC[C@]2(C)O [METHYLTESTOSTERONE] | > 30 µM | > 30 µM | > 30 µM | > 30 µM | > 30 µM | > 30 µM | > 30 µM | > 30 µM | > 30 µM | > 30 µM | 27 µM | > 30 µM |
| CC(=O)O[C@@]12CO[C@@H]1C[C@H](O)[C@@]1(C)C(=O)[C@H](O)C3=C(C)[C@@H](OC(=O)[C@H](O)[C@@H](NC(=O)OC(C)(C)C)c4ccccc4)C[C@@](O)([C@@H](OC(=O)c4ccccc4)[C@H]21)C3(C)C [DOCETAXEL ANHYDROUS] | > 30 µM | > 30 µM | – | > 30 µM | > 30 µM | > 30 µM | > 30 µM | > 30 µM | > 30 µM | > 30 µM | – | > 30 µM |
| O=C1NCCN1CCN1CCC(c2cn(-c3ccc(F)cc3)c3ccc(Cl)cc23)CC1 [SERTINDOLE] | > 30 µM | 16 µM | 20 µM | > 30 µM | > 30 µM | 12 µM | 4.3 µM | > 30 µM | 1.7 µM | 2.7 µM | 0.64 µM | > 30 µM |
| CCNC(C)Cc1cccc(C(F)(F)F)c1 (centres undefined) [FENFLURAMINE] | > 30 µM | > 30 µM | > 30 µM | > 10 µM | – | > 30 µM | > 10 µM | > 30 µM | – | – | – | > 30 µM |
| COc1ccc2c(c1)c(CC(=O)OCC(=O)O)c(C)n2C(=O)c1ccc(Cl)cc1 [ACEMETACIN] | > 30 µM | > 30 µM | > 30 µM | > 30 µM | > 30 µM | > 30 µM | > 30 µM | > 30 µM | > 30 µM | > 30 µM | > 30 µM | > 30 µM |
| Cc1cc2c(OCC(CNC(C)(C)C)OC(=O)c3ccccc3)cccc2[nH]1 (centres undefined) [BOPINDOLOL] | > 30 µM | > 30 µM | > 30 µM | > 30 µM | > 30 µM | > 30 µM | 23 µM | > 30 µM | 12 µM | 10.3 µM | > 30 µM | > 30 µM |
| COc1c(N2CCNC(C)C2)c(F)cc2c(=O)c(C(=O)O)cn(C3CC3)c12 (centres undefined) [GATIFLOXACIN] | > 10 µM | > 10 µM | – | > 10 µM | > 30 µM | > 10 µM | > 10 µM | > 10 µM | > 10 µM | > 10 µM | – | > 10 µM |
| CCCOc1ccc(C(=O)OCCN(CC)CC)cc1N [PROPARACAINE] | > 30 µM | > 30 µM | > 30 µM | > 30 µM | > 30 µM | > 30 µM | > 30 µM | > 30 µM | > 30 µM | > 30 µM | > 30 µM | – |
| CCN(CC)CCOC(=O)c1ccc(N)cc1 [PROCAINE] | > 30 µM | > 30 µM | > 30 µM | > 10 µM | > 10 µM | > 30 µM | > 10 µM | > 30 µM | > 30 µM | > 30 µM | > 30 µM | – |
| Cc1cccc(C)c1NC(=O)C1CCCCN1C (centres undefined) [MEPIVACAINE] | > 30 µM | > 30 µM | > 30 µM | > 30 µM | > 30 µM | > 30 µM | > 30 µM | > 30 µM | > 30 µM | > 30 µM | > 30 µM | – |
| CC[C@]1(O)C[C@@H]2CN(CCc3c([nH]c4ccccc34)[C@@](C(=O)OC)(c3cc4c(cc3OC)N(C)[C@H]3[C@@](O)(C(N)=O)[C@H](O)[C@]5(CC)C=CCN6CC[C@]43[C@@H]65)C2)C1 [VINDESINE] | > 30 µM | > 30 µM | – | > 30 µM | > 30 µM | > 30 µM | 4.8 µM | > 30 µM | > 30 µM | > 30 µM | > 30 µM | > 30 µM |
| COc1ccccc1OCC(O)COC(N)=O (centres undefined) [METHOCARBAMOL] | > 10 µM | > 10 µM | – | > 10 µM | > 10 µM | > 10 µM | > 10 µM | > 10 µM | > 10 µM | > 10 µM | – | > 10 µM |
| CCN1CCC[C@H]1CNC(=O)c1cc(S(N)(=O)=O)ccc1OC [LEVOSULPIRIDE] | > 30 µM | > 30 µM | > 30 µM | > 10 µM | > 10 µM | > 30 µM | > 10 µM | – | > 30 µM | > 30 µM | > 30 µM | > 30 µM |
| CCCCN1CCCCC1C(=O)Nc1c(C)cccc1C (centres undefined) [BUPIVACAINE] | > 30 µM | > 30 µM | > 30 µM | > 30 µM | > 30 µM | > 30 µM | > 30 µM | > 30 µM | > 30 µM | – | – | > 30 µM |
| CC(C)c1c(C(=O)Nc2ccccc2)c(-c2ccccc2)c(-c2ccc(F)cc2)n1CC[C@@H](O)C[C@@H](O)CC(=O)O [ATORVASTATIN] | > 30 µM | > 30 µM | > 30 µM | > 10 µM | > 10 µM | > 30 µM | > 10 µM | > 30 µM | – | > 30 µM | > 30 µM | > 30 µM |
| CN[C@@H]1[C@H](O)[C@H](NC)[C@H]2O[C@@]3(O)C(=O)C[C@@H](C)O[C@H]3O[C@@H]2[C@H]1O [SPECTINOMYCIN] | > 10 µM | > 10 µM | – | > 10 µM | > 10 µM | > 10 µM | > 10 µM | > 10 µM | > 10 µM | > 10 µM | – | > 10 µM |
